Measured values from ChEMBL document CHEMBL4507282, “Data for DCP probe BI-1950” (2021).

Legend:
[1] = biological target: Activin receptor type-2B (Homo sapiens) (UniProt Q13705); conditions: Compound concentration 1000.0 nM
[2] = biological target: RAC-beta serine/threonine-protein kinase (Homo sapiens) (UniProt P31751); conditions: Compound concentration 1000.0 nM
[3] = biological target: NUAK family SNF1-like kinase 1 (Homo sapiens) (UniProt O60285); conditions: Compound concentration 1000.0 nM
[4] = biological target: Tyrosine-protein kinase BTK (Homo sapiens) (UniProt Q06187); conditions: Compound concentration 1000.0 nM
[5] = biological target: Calcium/calmodulin-dependent protein kinase type II subunit delta (Homo sapiens) (UniProt Q13557); conditions: Compound concentration 1000.0 nM
[6] = biological target: Dual specificity protein kinase CLK4 (Homo sapiens) (UniProt Q9HAZ1); conditions: Compound concentration 1000.0 nM
[7] = biological target: Casein kinase II subunit alpha' (Homo sapiens) (UniProt P19784); conditions: Compound concentration 1000.0 nM
[8] = biological target: Serine/threonine-protein kinase DCLK3 (Homo sapiens) (UniProt Q9C098); conditions: Compound concentration 1000.0 nM
[9] = biological target: Serine/threonine-protein kinase MRCK gamma (Homo sapiens) (UniProt Q6DT37); conditions: Compound concentration 1000.0 nM
[10] = test system: Epidermal growth factor receptor (Homo sapiens), P00533 [UNDEFINED MUTATION]; conditions: Compound concentration 1000.0 nM
[11] = biological target: Ephrin type-A receptor 8 (Homo sapiens) (UniProt P29322); conditions: Compound concentration 1000.0 nM
Sequence of Ephrin type-A receptor 8 (Homo sapiens) (P29322 whole entry): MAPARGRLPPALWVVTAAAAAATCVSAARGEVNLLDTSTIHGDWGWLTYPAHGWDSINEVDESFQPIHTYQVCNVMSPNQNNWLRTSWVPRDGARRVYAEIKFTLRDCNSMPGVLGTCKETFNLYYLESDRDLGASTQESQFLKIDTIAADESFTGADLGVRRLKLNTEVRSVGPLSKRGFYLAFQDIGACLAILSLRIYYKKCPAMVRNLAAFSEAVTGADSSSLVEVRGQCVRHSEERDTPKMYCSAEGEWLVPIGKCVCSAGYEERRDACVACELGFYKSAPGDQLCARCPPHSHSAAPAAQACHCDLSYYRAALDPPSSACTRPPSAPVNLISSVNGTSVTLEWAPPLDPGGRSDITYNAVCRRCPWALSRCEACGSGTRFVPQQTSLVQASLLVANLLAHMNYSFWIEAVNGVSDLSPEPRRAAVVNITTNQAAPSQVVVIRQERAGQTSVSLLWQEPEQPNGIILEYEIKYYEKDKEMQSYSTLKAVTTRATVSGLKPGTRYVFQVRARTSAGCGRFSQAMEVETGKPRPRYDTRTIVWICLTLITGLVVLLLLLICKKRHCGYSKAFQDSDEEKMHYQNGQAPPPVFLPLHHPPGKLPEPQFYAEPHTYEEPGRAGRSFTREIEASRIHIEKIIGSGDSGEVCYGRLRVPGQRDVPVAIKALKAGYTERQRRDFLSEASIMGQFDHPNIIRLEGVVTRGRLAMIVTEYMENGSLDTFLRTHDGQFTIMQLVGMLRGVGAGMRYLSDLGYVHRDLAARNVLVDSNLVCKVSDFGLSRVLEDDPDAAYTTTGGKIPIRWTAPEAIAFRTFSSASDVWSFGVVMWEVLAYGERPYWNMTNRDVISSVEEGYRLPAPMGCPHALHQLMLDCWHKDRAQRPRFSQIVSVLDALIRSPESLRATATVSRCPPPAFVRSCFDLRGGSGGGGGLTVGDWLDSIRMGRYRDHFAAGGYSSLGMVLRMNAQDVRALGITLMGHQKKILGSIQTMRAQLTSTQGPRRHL

[12] = biological target: Receptor tyrosine-protein kinase erbB-3 (Homo sapiens) (UniProt P21860); conditions: Compound concentration 1000.0 nM
[13] = biological target: Tyrosine-protein kinase Fer (Homo sapiens) (UniProt P16591); conditions: Compound concentration 1000.0 nM
[14] = biological target: Fibroblast growth factor receptor 3 (Homo sapiens) (UniProt P22607); conditions: Compound concentration 1000.0 nM
[15] = biological target: Vascular endothelial growth factor receptor 3 (Homo sapiens) (UniProt P35916); conditions: Compound concentration 1000.0 nM
Sequence of Vascular endothelial growth factor receptor 3 (Homo sapiens) (P35916 whole entry): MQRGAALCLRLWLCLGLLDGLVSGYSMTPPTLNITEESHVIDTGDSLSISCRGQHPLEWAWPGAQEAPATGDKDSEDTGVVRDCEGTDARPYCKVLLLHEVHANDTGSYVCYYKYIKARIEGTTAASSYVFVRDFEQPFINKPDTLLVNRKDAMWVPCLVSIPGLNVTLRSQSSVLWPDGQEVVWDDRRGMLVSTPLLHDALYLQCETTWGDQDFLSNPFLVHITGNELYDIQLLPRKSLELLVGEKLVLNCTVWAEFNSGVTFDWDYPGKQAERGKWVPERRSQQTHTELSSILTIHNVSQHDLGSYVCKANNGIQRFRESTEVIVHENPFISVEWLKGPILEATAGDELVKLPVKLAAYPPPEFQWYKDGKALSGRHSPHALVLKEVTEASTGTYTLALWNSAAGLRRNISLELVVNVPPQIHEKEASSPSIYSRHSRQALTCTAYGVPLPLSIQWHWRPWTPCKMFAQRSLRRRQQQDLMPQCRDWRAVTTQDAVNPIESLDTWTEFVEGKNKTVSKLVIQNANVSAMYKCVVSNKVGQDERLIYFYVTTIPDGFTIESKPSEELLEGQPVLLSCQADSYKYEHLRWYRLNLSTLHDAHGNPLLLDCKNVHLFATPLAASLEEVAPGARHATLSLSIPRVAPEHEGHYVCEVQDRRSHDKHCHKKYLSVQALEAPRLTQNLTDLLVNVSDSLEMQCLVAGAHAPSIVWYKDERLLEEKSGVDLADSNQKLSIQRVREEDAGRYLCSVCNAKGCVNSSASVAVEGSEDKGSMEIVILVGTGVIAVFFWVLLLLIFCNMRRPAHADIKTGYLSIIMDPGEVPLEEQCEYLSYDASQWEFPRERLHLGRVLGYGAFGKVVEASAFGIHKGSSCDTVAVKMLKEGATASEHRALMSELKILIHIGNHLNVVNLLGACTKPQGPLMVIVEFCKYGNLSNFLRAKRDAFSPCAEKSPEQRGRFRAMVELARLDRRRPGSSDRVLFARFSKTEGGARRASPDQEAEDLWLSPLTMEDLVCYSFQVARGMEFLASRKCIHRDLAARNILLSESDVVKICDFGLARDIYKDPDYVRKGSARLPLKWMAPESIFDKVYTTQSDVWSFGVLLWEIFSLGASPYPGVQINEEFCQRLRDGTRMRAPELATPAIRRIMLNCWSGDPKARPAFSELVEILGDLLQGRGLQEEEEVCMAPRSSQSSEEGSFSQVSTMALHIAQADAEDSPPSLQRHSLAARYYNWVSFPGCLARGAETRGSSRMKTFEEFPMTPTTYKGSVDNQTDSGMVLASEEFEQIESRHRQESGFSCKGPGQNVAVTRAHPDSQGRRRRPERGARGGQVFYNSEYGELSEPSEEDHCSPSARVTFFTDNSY

[16] = biological target: Cyclin-G-associated kinase (Homo sapiens) (UniProt O14976); conditions: Compound concentration 1000.0 nM
[17] = biological target: Interleukin-1 receptor-associated kinase 3 (Homo sapiens) (UniProt Q9Y616); conditions: Compound concentration 1000.0 nM
[18] = biological target: Tyrosine-protein kinase JAK1 (Homo sapiens) (UniProt P23458); conditions: Compound concentration 1000.0 nM
[19] = test system: Mast/stem cell growth factor receptor Kit (Homo sapiens), P10721 [V559D]; conditions: Compound concentration 1000.0 nM
Sequence of Mast/stem cell growth factor receptor Kit (Homo sapiens), P10721 [V559D] (P10721 whole entry V559D): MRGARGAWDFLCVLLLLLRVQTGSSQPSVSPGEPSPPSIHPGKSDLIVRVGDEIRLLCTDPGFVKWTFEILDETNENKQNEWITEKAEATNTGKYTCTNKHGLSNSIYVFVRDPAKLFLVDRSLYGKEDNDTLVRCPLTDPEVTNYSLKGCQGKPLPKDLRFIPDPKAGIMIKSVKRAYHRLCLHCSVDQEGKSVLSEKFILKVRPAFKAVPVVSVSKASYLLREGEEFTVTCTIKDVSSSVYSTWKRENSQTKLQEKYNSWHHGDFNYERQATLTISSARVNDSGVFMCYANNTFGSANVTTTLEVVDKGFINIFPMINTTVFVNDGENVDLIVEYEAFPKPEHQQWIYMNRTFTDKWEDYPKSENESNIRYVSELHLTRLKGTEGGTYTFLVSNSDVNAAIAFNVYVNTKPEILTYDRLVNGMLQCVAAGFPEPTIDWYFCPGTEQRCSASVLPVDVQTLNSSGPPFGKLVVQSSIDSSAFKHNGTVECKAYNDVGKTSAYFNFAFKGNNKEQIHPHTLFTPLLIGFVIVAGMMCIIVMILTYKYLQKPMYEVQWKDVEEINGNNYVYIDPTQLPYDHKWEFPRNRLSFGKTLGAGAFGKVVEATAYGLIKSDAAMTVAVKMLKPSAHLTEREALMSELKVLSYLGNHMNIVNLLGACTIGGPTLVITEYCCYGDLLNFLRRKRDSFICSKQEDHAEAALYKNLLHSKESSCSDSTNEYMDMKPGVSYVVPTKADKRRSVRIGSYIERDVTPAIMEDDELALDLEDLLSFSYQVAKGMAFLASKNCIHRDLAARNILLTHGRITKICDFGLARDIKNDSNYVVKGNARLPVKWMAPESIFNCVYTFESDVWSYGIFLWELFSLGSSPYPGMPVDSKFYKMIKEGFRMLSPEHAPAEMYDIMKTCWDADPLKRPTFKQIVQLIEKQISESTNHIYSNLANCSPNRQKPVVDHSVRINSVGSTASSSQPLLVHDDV

[20] = biological target: Serine/threonine-protein kinase LATS1 (Homo sapiens) (UniProt O95835); conditions: Compound concentration 1000.0 nM
[21] = biological target: Leucine-rich repeat serine/threonine-protein kinase 2 (Homo sapiens) (UniProt Q5S007); conditions: Compound concentration 1000.0 nM
[22] = biological target: Mitogen-activated protein kinase kinase kinase 13 (Homo sapiens) (UniProt O43283); conditions: Compound concentration 1000.0 nM
[23] = biological target: Serine/threonine-protein kinase MAK (Homo sapiens) (UniProt P20794); conditions: Compound concentration 1000.0 nM
[24] = biological target: Mitogen-activated protein kinase kinase kinase 2 (Homo sapiens) (UniProt Q9Y2U5); conditions: Compound concentration 1000.0 nM
[25] = biological target: Dual specificity mitogen-activated protein kinase kinase 3 (Homo sapiens) (UniProt P46734); conditions: Compound concentration 1000.0 nM
Sequence of Dual specificity mitogen-activated protein kinase kinase 3 (Homo sapiens) (P46734 whole entry): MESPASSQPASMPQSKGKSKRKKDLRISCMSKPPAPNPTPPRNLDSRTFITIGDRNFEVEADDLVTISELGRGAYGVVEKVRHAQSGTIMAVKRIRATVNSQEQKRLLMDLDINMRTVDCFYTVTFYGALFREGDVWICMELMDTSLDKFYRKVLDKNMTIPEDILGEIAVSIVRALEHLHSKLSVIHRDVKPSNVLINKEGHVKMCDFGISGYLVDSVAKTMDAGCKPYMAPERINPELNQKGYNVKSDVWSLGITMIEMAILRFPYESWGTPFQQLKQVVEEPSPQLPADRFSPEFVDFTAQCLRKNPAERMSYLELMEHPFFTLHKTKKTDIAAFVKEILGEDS

[26] = biological target: Dual specificity mitogen-activated protein kinase kinase 5 (Homo sapiens) (UniProt Q13163); conditions: Compound concentration 1000.0 nM
[27] = biological target: Serine/threonine-protein kinase Nek5 (Homo sapiens) (UniProt Q6P3R8); conditions: Compound concentration 1000.0 nM
[28] = biological target: Phosphorylase b kinase regulatory subunit alpha, liver isoform (Homo sapiens) (UniProt P46019); conditions: Compound concentration 1000.0 nM
[29] = biological target: Serine/threonine-protein kinase pim-3 (Homo sapiens) (UniProt Q86V86); conditions: Compound concentration 1000.0 nM
[30] = biological target: Phosphatidylinositol 5-phosphate 4-kinase type-2 gamma (Homo sapiens) (UniProt Q8TBX8); conditions: Compound concentration 1000.0 nM
[31] = biological target: Protein kinase C eta type (Homo sapiens) (UniProt P24723); conditions: Compound concentration 1000.0 nM
[32] = biological target: Protein kinase C theta type (Homo sapiens) (UniProt Q04759); conditions: Compound concentration 1000.0 nM
[33] = biological target: Serine/threonine-protein kinase D3 (Homo sapiens) (UniProt O94806); conditions: Compound concentration 1000.0 nM
[34] = biological target: Serine/threonine-protein kinase RIO3 (Homo sapiens) (UniProt O14730); conditions: Compound concentration 1000.0 nM
[35] = biological target: Proto-oncogene tyrosine-protein kinase ROS (Homo sapiens) (UniProt P08922); conditions: Compound concentration 1000.0 nM
[36] = biological target: Ribosomal protein S6 kinase alpha-3 (Homo sapiens) (UniProt P51812); conditions: Compound concentration 1000.0 nM
[37] = biological target: Serine/threonine-protein kinase tousled-like 1 (Homo sapiens) (UniProt Q9UKI8); conditions: Compound concentration 1000.0 nM
[38] = biological target: Testis-specific serine/threonine-protein kinase 1 (Homo sapiens) (UniProt Q9BXA7); conditions: Compound concentration 1000.0 nM
[39] = biological target: Serine/threonine-protein kinase ULK1 (Homo sapiens) (UniProt O75385); conditions: Compound concentration 1000.0 nM
[40] = biological target: Vascular endothelial growth factor receptor 2 (Homo sapiens) (UniProt P35968); conditions: Compound concentration 1000.0 nM
[41] = biological target: Phosphatidylinositol 3-kinase catalytic subunit type 3 (Homo sapiens) (UniProt Q8NEB9); conditions: Compound concentration 1000.0 nM
Sequence of Phosphatidylinositol 3-kinase catalytic subunit type 3 (Homo sapiens) (Q8NEB9 whole entry): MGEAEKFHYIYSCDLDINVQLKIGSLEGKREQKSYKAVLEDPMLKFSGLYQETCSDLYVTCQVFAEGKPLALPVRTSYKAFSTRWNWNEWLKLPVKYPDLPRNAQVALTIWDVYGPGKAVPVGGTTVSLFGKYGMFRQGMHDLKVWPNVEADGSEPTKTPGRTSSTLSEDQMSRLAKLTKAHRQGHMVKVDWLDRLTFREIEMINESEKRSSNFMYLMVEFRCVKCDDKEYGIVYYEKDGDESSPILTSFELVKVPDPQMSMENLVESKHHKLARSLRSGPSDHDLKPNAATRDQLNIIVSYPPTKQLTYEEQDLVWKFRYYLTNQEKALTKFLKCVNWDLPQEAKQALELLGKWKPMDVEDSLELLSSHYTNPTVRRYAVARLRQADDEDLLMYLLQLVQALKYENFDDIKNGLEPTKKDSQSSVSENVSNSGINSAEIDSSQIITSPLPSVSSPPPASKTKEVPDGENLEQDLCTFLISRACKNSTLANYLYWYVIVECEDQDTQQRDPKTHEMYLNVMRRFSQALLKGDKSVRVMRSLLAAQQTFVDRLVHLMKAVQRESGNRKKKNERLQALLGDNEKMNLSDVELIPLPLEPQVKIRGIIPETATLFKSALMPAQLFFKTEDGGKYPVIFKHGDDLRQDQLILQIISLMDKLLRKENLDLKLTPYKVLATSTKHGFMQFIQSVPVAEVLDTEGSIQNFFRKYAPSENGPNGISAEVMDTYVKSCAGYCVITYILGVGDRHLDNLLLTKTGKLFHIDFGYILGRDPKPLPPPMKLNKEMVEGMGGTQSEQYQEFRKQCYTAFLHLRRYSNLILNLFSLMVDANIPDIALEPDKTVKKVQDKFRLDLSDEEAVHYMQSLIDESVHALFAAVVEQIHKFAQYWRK

[42] = biological target: Serine/threonine-protein kinase WNK1 (Homo sapiens) (UniProt Q9H4A3); conditions: Compound concentration 1000.0 nM
[43] = biological target: 5-hydroxytryptamine receptor 5A (Homo sapiens) (UniProt P47898); conditions: Compound concentration 10.0 uM
[44] = biological target: D(1A) dopamine receptor (Homo sapiens) (UniProt P21728); conditions: Compound concentration 10.0 uM
[45] = biological target: Alpha-2C adrenergic receptor (Homo sapiens) (UniProt P18825); conditions: Compound concentration 10.0 uM

C[C@H](NC(=O)c1cnc2n1[C@](C)(Cc1ccc(C#N)cc1)C(=O)N2c1cc(Cl)c(F)c(Cl)c1)C(=O)NC1(c2ccccn2)CC1 [BI 1950]
inactive: residual activity [1] 100% | residual activity [2] 100% | residual activity [3] 99% | residual activity [4] 100% | residual activity [5] 100% | residual activity [6] 88% | residual activity [7] 99% | residual activity [8] 100% | residual activity [9] 100% | residual activity [10] 82% | residual activity [11] 100% | residual activity [12] 100% | residual activity [13] 100% | residual activity [14] 100% | residual activity [15] 100% | residual activity [16] 92% | residual activity [17] 100% | residual activity [18] 100% | residual activity [19] 91% | residual activity [20] 100% | residual activity [21] 100% | residual activity [22] 100% | residual activity [23] 100% | residual activity [24] 100% | residual activity [25] 80% | residual activity [26] 100% | residual activity [27] 100% | residual activity [28] 100% | residual activity [29] 100% | residual activity [30] 100% | residual activity [31] 90% | residual activity [32] 100% | residual activity [33] 100% | residual activity [34] 100% | residual activity [35] 100% | residual activity [36] 100% | residual activity [37] 100% | residual activity [38] 79% | residual activity [39] 100% | residual activity [40] 99% | residual activity [41] 100% | residual activity [42] 100% | inhibition [43] 6.14% | inhibition [44] 1.26% | inhibition [45] 0.16%

C[C@@]1(Cc2ccc(C#N)cc2)C(=O)N(c2cc(Cl)cc(Cl)c2)c2ncc(C(=O)NC3(c4nc(C5CCC5)no4)CC3)n21 [BI 9446]
inactive: residual activity [1] 100% | residual activity [2] 100% | residual activity [3] 100% | residual activity [4] 100% | residual activity [5] 100% | residual activity [6] 97% | residual activity [7] 100% | residual activity [8] 88% | residual activity [9] 100% | residual activity [10] 58% | residual activity [11] 100% | residual activity [12] 96% | residual activity [13] 100% | residual activity [14] 100% | residual activity [15] 100% | residual activity [16] 100% | residual activity [17] 100% | residual activity [18] 100% | residual activity [19] 99% | residual activity [20] 96% | residual activity [21] 93% | residual activity [22] 100% | residual activity [23] 100% | residual activity [24] 100% | residual activity [25] 89% | residual activity [26] 100% | residual activity [27] 100% | residual activity [28] 100% | residual activity [29] 100% | residual activity [30] 100% | residual activity [31] 100% | residual activity [32] 98% | residual activity [33] 87% | residual activity [34] 100% | residual activity [35] 100% | residual activity [36] 100% | residual activity [37] 100% | residual activity [38] 76% | residual activity [39] 100% | residual activity [40] 100% | residual activity [41] 100% | residual activity [42] 99% | inhibition [43] 2.14% | inhibition [44] 18.6% | inhibition [45] 9.3%
